In PubChem BioAssay (NCI):
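48-hour exposure; five concentrations; linearly interpolated endpoints. GI50 = concentration required for 50% inhibition of growth. TGI denotes the concentration required for complete inhibition of growth.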

Columns and labels:
Experiment in all cases: DTP human tumour cell line panel, 48 h
SN12C renal = test system: SN12C renal
SNB-75 CNS = test system: SNB-75 CNS
HCC-2998 colon = test system: HCC-2998 colon
KM12 colon = test system: KM12 colon
UO-31 renal = test system: UO-31 renal
TK-10 renal = test system: TK-10 renal
SF-539 CNS = test system: SF-539 CNS
SK-OV-3 ovarian = test system: SK-OV-3 ovarian

Row | Structure (SMILES) | TGI (SN12C renal) [µM] | TGI (SNB-75 CNS) [µM] | TGI (HCC-2998 colon) [µM] | TGI (KM12 colon) [µM] | TGI (UO-31 renal) [µM] | TGI (TK-10 renal) [µM] | TGI (SF-539 CNS) [µM] | TGI (SK-OV-3 ovarian) [µM] | GI50 (SN12C renal) [µM] | GI50 (SNB-75 CNS) [µM] | GI50 (HCC-2998 colon) [µM] | GI50 (KM12 colon) [µM] | GI50 (UO-31 renal) [µM] | GI50 (TK-10 renal) [µM] | GI50 (SF-539 CNS) [µM] | GI50 (SK-OV-3 ovarian) [µM]
1 | CCCCCCCCCCCCOC(=S)NC | 31.7 | 74.6 | 32 | 27.8 | 43.7 | 25.4 | 33.5 | 58 |  |  |  |  |  |  |  | 
2 | CN(/C(=N\O)c1ccccc1)c1ccccc1 | > 100 | 40.8 | 73.5 | > 100 | 69.3 |  | 49.6 |  |  |  |  |  |  |  |  | 
3 | C[C@@]1(CBr)C[C@@](C)(/C=C/Cl)[C@@H](Cl)C[C@H]1Cl | 24.4 | 30.5 | 29.8 | 22.5 | 29.1 | 28.7 | 27.9 | 29.9 |  |  |  |  |  |  |  | 
4 | O/N=C1/C(=C/c2ccc(Cl)cc2)CCCC1C(NO)c1ccc(Cl)cc1 (stereo not given) | 39.7 | 39.5 | 47.4 | 40.6 | 63.4 | > 100 | 88.1 | > 100 |  |  |  |  |  |  |  | 
5 | CCc1ccccc1NC(=O)C1=C(C)NC(C)=C(C(=O)Nc2ccccc2CC)C1c1ccc(NC(C)=O)cc1 | > 100 | > 100 | 48.6 | > 100 | > 100 | > 100 | 68 | > 100 |  |  |  |  |  |  |  | 
6 | CCC[CH2][Sn]1([CH2]CCC)[O]CC([CH2][Sn]([c]2ccccc2)([c]2ccccc2)[c]2ccccc2)[O]1 (stereo not given) | 27.7 | 20.2 | 22.4 | 25.3 | 28.7 | 27 | 28.3 | 33.2 | 14 | 6.49 | 10.2 | 12.2 | 15.3 | 13.8 | 15 | 19.1
7 | CC(=O)OC1C/C(C)=C/[C@H](O)CC(C)/C=C/[C@@]2(C)CCC(C(C)(C)O)C12 (stereo not given in full) | > 100 | > 100 | > 100 | > 100 | > 100 | > 100 | > 100 | > 100 |  |  |  |  |  |  |  | 
8 | COc1cc(CCC(=O)NS(=O)(=O)c2ccccc2)cc(OC)c1OC | > 100 | > 100 | > 100 | > 100 | > 100 | > 100 | > 100 | > 100 |  |  |  |  |  |  |  | 
9 | CN(C(=O)C1CC1)C1C2CN3CCC(O2)C13 (stereo not given) | > 100 | > 100 | > 100 | > 100 | > 100 | > 100 | > 100 | > 100 |  |  |  |  |  |  |  | 
10 | CC(=O)[CH-]C(=O)c1ccccc1.CC(=O)[CH-]C(=O)c1ccccc1.CC[O-].O=C1C=C([O-])C(=O)c2ccccc21.[Ti+4] | > 100 | > 100 | > 100 | > 100 | > 100 |  | > 100 | > 100 | 97.9 | > 100 | 23.1 | 32.2 | > 100 |  | > 100 | 70.8
11 | COC(=O)C1CCC(N2C(=O)CCC2C(=O)OC)=N1 (stereo not given) | > 100 | > 100 | > 100 | > 100 | > 100 | > 100 |  | > 100 |  |  |  |  |  |  |  | 
12 | CC(=O)Oc1cc(OC(C)=O)c2cc3c(cc2c1OC(C)=O)C(=O)C1(CCCC1)C3=O | 31.6 | 30 | 37.2 |  | 29.8 | 31.3 |  | 31.4 |  |  |  |  |  |  |  | 
13 | CCCCCCCCCCCCCCCCCCOCC1(COP(=O)([O-])OCC[N+](C)(C)C)CCCO1 (stereo not given) | 5.81 | 18.3 | 4.68 | 3.33 | 21.9 | 3.54 | 29.4 | 27.7 |  |  |  |  |  |  |  | 
14 | O=C(O)C1=C(Cl)c2ccccc2S1(=O)=O | > 100 | > 100 | > 100 | > 100 | > 100 | > 100 |  | > 100 |  |  |  |  |  |  |  | 
15 | CC(=O)[CH-]C(=O)c1ccccc1.CC(=O)[CH-]C(=O)c1ccccc1.CC12CC3(C)CC(C)(C1)CC([O-])(C2)C3.CC[O-].[Ti+4] | > 100 | 29.4 |  | 35.2 | 57.5 | 62.1 | 38.5 | > 100 | 43.5 | 14.3 |  | 18.3 | 16 | 26.7 | 17.5 | 23.1
16 | Cn1c(=O)c2[nH]cnc2n(CC(=O)O)c1=O | > 100 | > 100 |  | > 100 | > 100 | > 100 | > 100 | > 100 |  |  |  |  |  |  |  | 
17 | O/N=C1/C(=C/c2ccccc2)CCCC1C(NO)c1ccccc1 (stereo not given) | > 100 | > 100 |  | > 100 | > 100 | > 100 | > 100 | > 100 |  |  |  |  |  |  |  | 
18 | N#CNc1nc(C(=O)Nc2ccc(Cl)cc2)cc(-c2ccccc2)n1 | > 100 | > 100 | > 100 | > 100 | > 100 |  | > 100 |  |  |  |  |  |  |  |  | 
19 | CCCCCC/C=C/CCCCCCCc1cccc(O)c1C(=O)O |  | > 100 |  | > 100 | > 100 | > 100 | > 100 | 99.8 |  |  |  |  |  |  |  | 
